Test results from patent publication US20230048888A1, “USE OF TRIAZOLOTRIAZINE DERIVATIVE IN TREATMENT OF DISEASES” (ZHEJIANG VIMGREEN PHARMACEUTICALS, LTD., priority 2019, published 2023).
Values belong to the compound of their own block, whether it stands above or below them.

What was measured:
[1] = system: 6-OHDA Parkinson's disease model with L-DOPA resistance; experiment: 6-OHDA-induced rat rotation experiment, second stage: L-DOPA resistance (rotation response time); type: in vivo, Wistar rats
Source text: After long-term use of levodopa, patients with Parkinson's disease are prone to drug resistance (end-of-dose phenomenon). That is, the duration of its pharmaceutical effect tends to gradually become shorter (shortened opening period), its efficacy will become weaker and weaker, and the symptoms of the patients are becoming more and more uncontrollable. By the combined use with the test compound, the efficacy of levodopa can be restored for patients with Parkinson's disease in the off phase, who have already experienced the end-of-dose phenomenon. The rat model of Parkinson's disease was constructed by fixed-point injection of 6-hydroxydopamine (6-OHDA) to damage the substantia nigra striatum, and then the animals were administrated with levodopa (L-DOPA)/Benserazide (BID) for a long term (3-4 weeks as planned). […] On Day 22, at 60 minutes before the intraperitoneal injection of L-DOPA (20 mg/kg)/Benserazide (5 mg/kg), each test group was orally administered with the vehicle, test drug or positive drug. […] Four rotation tests were performed on Days 0, 7, 14 and 21 respectively. On the day of test, both the test drug and the control drug were administered orally only once. On this day, all test animals were also administered with L-DOPA (20 mg/kg)/Benserazide (5 mg/kg) once by intraperitoneal injection to induce rotation. In the second stage, the time for counting rotation with the rotation counter is 180 min. [table] In the second stage, after the intraperitoneal injection of L-DOPA/Benserazide to the experimental animals, the total number of rotations was recorded every 5 min, and the number of rotations per 5 min was calculated based on this, and the 5 min with the largest number of rotations was found from it, and the number of rotations within this 5 min was defined as the peak number of rotations. The first 5 minutes when the number of rotations increased to 20% of the peak number of rotations was the starting point of the rotation response time, and the first 5 minutes when the number of rotations dropped to 20% of the peak number of rotations was the terminating point of the rotation response time. The time between the starting point and the terminating point was regarded as the rotation response time. The test results are represented as “mean±standard deviation”. The data was statistically analyzed by the SPSS16.0 software package. One-way ANOVA, paired sample T test and independent sample T test were used for comparison, with P<0.05 showing a statistical difference.

[2] = biological target: T1, human ADORA3 (Homo sapiens, UniProt P0DMS8); experiment: Calcium flow test (FLIPR), ADORA3 stably transfected CHO; type: cell-based; details: Table 9
T1 construct: host or cells: CHO
T1 sequence (P0DMS8 1-318): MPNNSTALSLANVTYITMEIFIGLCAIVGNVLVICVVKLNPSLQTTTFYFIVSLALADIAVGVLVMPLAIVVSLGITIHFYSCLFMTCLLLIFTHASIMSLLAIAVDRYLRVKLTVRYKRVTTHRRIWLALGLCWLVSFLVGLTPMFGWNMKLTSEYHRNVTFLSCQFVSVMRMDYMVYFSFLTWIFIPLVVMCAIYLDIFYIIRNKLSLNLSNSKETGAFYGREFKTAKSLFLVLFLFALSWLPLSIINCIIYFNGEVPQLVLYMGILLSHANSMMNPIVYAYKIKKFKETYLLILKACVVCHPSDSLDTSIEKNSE
Experimental: (§1) In this experiment, stably transfected cell lines over-expressing adenosine receptor coupled to human Gq were used, and the antagonistic function of Compound 22 was evaluated by testing the changes in intracellular calcium ion concentration. The binding of the A2AR agonist to A2AR could activate a downstream pathway to increase the intracellular calcium ion concentration. The antagonist would competitively occupy the binding site where the agonist binds to A2AR, thereby interrupting the intracellular signal transduction and leading to a change in the intracellular calcium ion concentration. By detecting the strength of the intracellular calcium ion signal, the antagonistic activities of the compound on human ADORA1, ADORA2A, ADORA2B and ADORA3 adenosine receptors were determined. […]
(§2) 7) The FLIPR instrument software was operated; following a set program, 10 μL of experimental buffer salt solution was added to the cell plate; and fluorescence signals were read. Then, 10 μL of the reference compound of agonist at a predetermined concentration was added to the cell plate, and the fluorescence signals were read. After reading, data was exported by means of “Max-Min” and “Read 91 to Maximum allowed” in the software, the EC80 of each cell line was calculated, and an agonist with a concentration of 6×EC80 was prepared.
9) The FLIPR instrument software was operated; following a set program, 10 μL of the test compound and 10 μL of the reference compound were added at a predetermined concentration to the cell plate; and the fluorescence signals were read. Then, 10 μL of the reference compound of agonist at a concentration of 6×EC80 was added to the cell plate, and the fluorescence signal were read. For the antagonist detection of the compound, data was exported by means of “Max-Min” and “Read 1 to 90” in the software. […]

[3] = biological target: T2, human ADORA1 (Homo sapiens, UniProt P30542); experiment: Calcium flow test (FLIPR), ADORA1 stably transfected HEK293; type: cell-based; details: Table 9
T2 construct: host or cells: HEK293
T2 sequence (P30542 whole entry): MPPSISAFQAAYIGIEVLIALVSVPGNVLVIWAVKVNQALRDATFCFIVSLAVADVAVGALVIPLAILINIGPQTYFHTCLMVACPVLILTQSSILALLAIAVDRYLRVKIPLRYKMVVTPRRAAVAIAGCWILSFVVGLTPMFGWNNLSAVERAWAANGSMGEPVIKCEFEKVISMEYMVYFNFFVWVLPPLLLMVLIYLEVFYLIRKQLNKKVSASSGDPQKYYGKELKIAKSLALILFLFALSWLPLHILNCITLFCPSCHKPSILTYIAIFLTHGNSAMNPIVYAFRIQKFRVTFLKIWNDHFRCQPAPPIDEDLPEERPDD
Source text: as §1, with “The” for “In this experiment, stably transfected cell lines over-expressing adenosine receptor coupled to human Gq were used, and the antagonistic function of Compound 22 was evaluated by testing the changes in intracellular calcium ion concentration. The”
as §2
9) The FLIPR instrument software was operated; following a set program, 10 μL of the test compound and 10 μL of the reference compound were added at a predetermined concentration to the cell plate; and the fluorescence signals were read. […]

[4] = Group 3 (7.5 mg/kg, Day 22) + L-DOPA/Benserazide, before test drug
[5] = Group 4 (15 mg/kg, Day 22) + L-DOPA/Benserazide, before test drug
[6] = Group 6 (30 mg/kg, Day 22) + L-DOPA/Benserazide, before test drug
[7] = Group 7: 5 or 10 mg/kg oral BID*21 + L-DOPA/Benserazide
[8] = Group 5 (10 mg/kg, Day 22) + L-DOPA/Benserazide, before test drug
[9] = Group 8: 10 mg/kg oral BID*21 + L-DOPA/Benserazide

SMILES: CC(=O)O.Nc1nc(NCCc2ccc(NC3COC3)cc2)nc2nc(-c3ccco3)nn12 [Acetate of Compound 22, 2-(furan-2-yl)-N5-(4-(oxetane-3-ylamino)phenethyl)-[1,2,4]triazolo[1,5-a][1,3,5]triazine-5,7-diamine acetate]
Rotational reaction time - Day 0 [1, 4]: 129.0 ± 9.1 min
Rotational reaction time - Day 7 [1, 4]: 110.0 ± 27.1 min
Rotational reaction time - Day 14 [1, 4]: 109.5 ± 11.7 min
Rotational reaction time - Day 21 [1, 4]: 111.5 ± 14.0 min
Rotational reaction time - Day 22 ([1]; Group 3: 7.5 mg/kg single oral Day 22 + L-DOPA/Benserazide): 133.5 ± 30.0^ min
Rotational reaction time - Day 0 [1, 5]: 128.9 ± 11.7 min
Rotational reaction time - Day 7 [1, 5]: 113.3 ± 13.0 min
Rotational reaction time - Day 14 [1, 5]: 111.1 ± 17.8 min
Rotational reaction time - Day 21 [1, 5]: 97.5 ± 42.7 min
Rotational reaction time - Day 22 ([1]; Group 4: 15 mg/kg single oral Day 22 + L-DOPA/Benserazide): 146.3 ± 37.0& min
Rotational reaction time - Day 0 [1, 6]: 135.0 ± 13.1 min
Rotational reaction time - Day 7 [1, 6]: 121.0 ± 13.3 min
Rotational reaction time - Day 14 [1, 6]: 110.6 ± 21.9 min
Rotational reaction time - Day 21 [1, 6]: 104.4 ± 23.0 min
Rotational reaction time - Day 22 ([1]; Group 6: 30 mg/kg single oral Day 22 + L-DOPA/Benserazide): 153.9 ± 22.7& min
Rotational reaction time - Day 0 [1, 7]: 150.5 ± 11.9 min
Rotational reaction time - Day 7 [1, 7]: 145.6 ± 3.0 min
Rotational reaction time - Day 14 [1, 7]: 133.9 ± 8.9 min
Rotational reaction time - Day 21 [1, 7]: 128.3 ± 13.5 min
Effect on body weight of the test animal ([1]; during the test period, vs model control group): no significant effect on the body weight

IC50 [2]: 6300 ± 2890 nM
IC50 [3]: 228 ± 105 nM
SMILES: Cn1nnc(-c2ccc(CCNc3nc(N)n4nc(-c5ccco5)nc4n3)cc2)n1 [Compound 40, N5-(4-(2-methyl-2H-tetrazol-5-yl)phenethyl)-2-(furan-2-yl)-[1,2,4]triazolo[1,5-a][1,3,5]triazine-5,7-diamine]

SMILES: Nc1nc(NCCc2ccc(NC3COC3)cc2)nc2nc(-c3ccco3)nn12 [Compound 22, 2-(furan-2-yl)-N5-(4-(oxetan-3-ylamino)phenethyl)-[1,2,4]triazolo[1,5-a][1,3,5]triazine-5,7-diamine]
IC50 [2]: 931 ± 54.1 nM
IC50 [3]: 218 ± 148 nM

SMILES: CCn1c(=O)c2c(nc(/C=C/c3ccc(OC)c(OC)c3)n2C)n(CC)c1=O [Istradefylline, reference compound]
Rotational reaction time - Day 0 [1, 8]: 116.1 ± 34.4 min
Rotational reaction time - Day 7 [1, 8]: 126.7 ± 10.6 min
Rotational reaction time - Day 14 [1, 8]: 116.3 ± 13.8 min
Rotational reaction time - Day 21 [1, 8]: 114.4 ± 15.9 min
Rotational reaction time - Day 22 ([1]; Group 5: 10 mg/kg single oral Day 22 + L-DOPA/Benserazide): 150.6 ± 37.8& min
Rotational reaction time - Day 0 [1, 9]: 161.5 ± 14.2 min
Rotational reaction time - Day 7 [1, 9]: 125.0 ± 23.5 min
